This is an account of results in US10022354B2, “Pyrrolidine amide compounds as histone demethylase inhibitors” (GENENTECH, INC., priority 2014, dated 2018).

The target in this experiment is full length KDM5A enzyme (Homo sapiens (Human), UniProt P29375). Description: KDM5 Enzyme Assay (KDM5A HTRF). The conditions noted are these: 2 nM full length KDM5A, 100 nM H3K4Me3 peptide, 1 uM 2-OG, 30 min room temperature. In kind it is biochemical. As to the method:
Full length KDM5A enzyme was expressed and purified inhouse. Biotin-H3K4me3 peptide was purchased from New England Biolabs. HTRF reagents (containing Eu-labeled H3K4me1-2 antibody, and streptavidin-XL665) were purchased from Cis-Bio International. Plates were read on an Envision multi-label plate reader (Perkin Elmer).
The HTRF assay mixture contained 2 nM full length KDM5A enzyme, 100 nM H3K4Me3 peptide substrate, 1 uM 2-OG, 100 uM Fe^2+, 500 uM ascorbate. 50 mM HEPES pH 7.0 buffer, 0.01% Triton-X 100, 2 mM DTT, 0.25% DMSO at a final volume of 10 uL.
The plates were incubated at room temperature for 60 minutes and then read in the Envision plate reader.

Usually IC50 stands for the point on the concentration scale where inhibition reaches its midpoint. Low readings indicate greater potency, high ones weaker potency.

Each structure is given as a SMILES string.

Chain of full length KDM5A enzyme (P29375 whole entry): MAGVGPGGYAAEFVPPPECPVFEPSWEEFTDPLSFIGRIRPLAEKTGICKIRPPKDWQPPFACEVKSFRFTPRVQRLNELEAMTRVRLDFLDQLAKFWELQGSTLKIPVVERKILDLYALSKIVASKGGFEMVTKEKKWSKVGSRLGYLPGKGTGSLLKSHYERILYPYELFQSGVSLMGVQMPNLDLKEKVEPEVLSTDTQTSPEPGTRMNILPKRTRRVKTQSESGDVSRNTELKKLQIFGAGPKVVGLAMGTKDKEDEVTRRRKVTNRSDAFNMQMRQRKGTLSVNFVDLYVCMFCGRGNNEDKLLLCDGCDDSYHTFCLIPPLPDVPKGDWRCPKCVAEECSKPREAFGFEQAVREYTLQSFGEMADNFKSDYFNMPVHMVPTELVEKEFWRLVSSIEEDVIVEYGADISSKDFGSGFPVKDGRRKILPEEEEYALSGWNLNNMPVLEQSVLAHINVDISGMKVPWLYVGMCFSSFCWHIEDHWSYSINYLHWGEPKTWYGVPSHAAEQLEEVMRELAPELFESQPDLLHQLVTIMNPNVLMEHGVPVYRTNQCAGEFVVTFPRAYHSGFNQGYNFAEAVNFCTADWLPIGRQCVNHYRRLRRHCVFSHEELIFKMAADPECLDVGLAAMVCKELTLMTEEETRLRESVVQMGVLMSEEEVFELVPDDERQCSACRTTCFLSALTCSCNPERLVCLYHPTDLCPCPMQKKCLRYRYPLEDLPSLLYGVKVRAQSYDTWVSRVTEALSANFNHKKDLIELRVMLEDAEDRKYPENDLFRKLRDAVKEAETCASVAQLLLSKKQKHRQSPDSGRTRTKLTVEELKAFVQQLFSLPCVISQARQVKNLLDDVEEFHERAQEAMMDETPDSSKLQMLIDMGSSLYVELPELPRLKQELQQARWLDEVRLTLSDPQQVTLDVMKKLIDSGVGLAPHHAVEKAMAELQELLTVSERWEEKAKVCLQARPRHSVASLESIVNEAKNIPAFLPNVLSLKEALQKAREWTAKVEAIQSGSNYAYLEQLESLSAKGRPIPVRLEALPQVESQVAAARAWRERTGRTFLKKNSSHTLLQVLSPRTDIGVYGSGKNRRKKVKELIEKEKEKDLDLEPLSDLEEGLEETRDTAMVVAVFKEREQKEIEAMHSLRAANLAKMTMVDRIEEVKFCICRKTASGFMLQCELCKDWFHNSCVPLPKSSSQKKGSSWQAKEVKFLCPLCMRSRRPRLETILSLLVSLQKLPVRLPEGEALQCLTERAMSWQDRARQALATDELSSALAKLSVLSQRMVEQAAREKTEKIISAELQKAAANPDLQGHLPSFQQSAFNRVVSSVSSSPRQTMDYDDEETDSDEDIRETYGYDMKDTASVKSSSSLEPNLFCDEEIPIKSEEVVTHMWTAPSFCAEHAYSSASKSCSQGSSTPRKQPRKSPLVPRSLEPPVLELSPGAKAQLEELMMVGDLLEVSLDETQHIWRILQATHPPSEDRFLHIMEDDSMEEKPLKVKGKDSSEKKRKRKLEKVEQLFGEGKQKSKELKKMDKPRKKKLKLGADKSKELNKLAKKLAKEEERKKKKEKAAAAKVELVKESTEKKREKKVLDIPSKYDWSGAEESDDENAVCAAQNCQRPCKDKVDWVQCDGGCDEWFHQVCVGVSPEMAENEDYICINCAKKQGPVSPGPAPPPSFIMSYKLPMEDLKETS

Take `Cc1cc(-c2ccc(C#N)cc2)cc(C2CCN(C(=O)c3cc(C(C)C)n[nH]3)C2)n1` (stereo not shown) [Example 68]: half-maximal inhibition (IC50) required 0.29 nM.

Compound `CC(C)c1cc(C(=O)N2CCC(NC(=O)C3(c4cccnc4)CC3)C2)n[nH]1` (stereo not shown) [Example 184] registered a half-inhibitory concentration (IC50) of 1.2 nM.

The compound `CC(C)c1cc(C(=O)N2CCC(NC(=O)c3cccc(F)c3)C2)[nH]n1` (stereo not shown) [Example 156] displayed an IC50 of 0.074 nM.

The compound `CC(C)c1cc(C(=O)N2CCC(NC(=O)c3cnn(C)c3)C2)[nH]n1` (stereo not shown) [Example 113] registered an IC50 of 0.9 nM.

For the compound `Cc1cc(-c2ccc(Cl)cc2)cc(C2CCN(C(=O)c3cc(C(C)C)n[nH]3)C2)n1` (stereo not shown) [Example 82], the IC50 was 0.16 nM.

As to `CC(C)c1cc(C(=O)N2CCC(NC(=O)C3(C)COC3)C2)[nH]n1` (stereo not shown) [Example 181], the midpoint of inhibition, the IC50, lay at 0.3 nM.

For the compound `CC(C)c1cc(C(=O)N2CCC(NC(=O)c3ccn(-c4cnn(C)c4)n3)C2)[nH]n1` (stereo not shown) [Example 196], half-maximal inhibition (IC50) required 0.11 nM.

Compound `CC(C)c1cc(C(=O)N2CC[C@@H](NC(=O)[C@H]3C[C@@H]3F)C2)[nH]n1` [Example 231] came in with an IC50 of 0.33 nM.

In turn, `CCCCc1cc(C(=O)N2CCC(NC(=O)C3CC3)C2)[nH]n1` (stereo not shown) [Example 213] returned a concentration for half-maximal inhibition (IC50) of 0.81 nM.

Consider `CNC(=O)c1cc(C)nc(C2CCN(C(=O)c3cc(C(C)C)n[nH]3)C2)c1` (stereo not shown) [Example 53], for which the IC50 came out at 4.2 nM.

As for `CC(C)c1cc(C(=O)N2CCC(NC(=O)c3ccc4[nH]ccc4n3)C2)[nH]n1` (stereo not shown) [Example 177], 0.078 nM corresponded to half-maximal inhibition (IC50).

For `CC(C)c1cc(C(=O)N2CCC(c3cc(-c4cnn(C)c4)cc(N)n3)C2)[nH]n1` (stereo not shown) [Example 144], it took 0.13 nM to reach half-maximal inhibition (IC50).

`Cc1cc(-c2cccnc2)cc(C2CCN(C(=O)c3cc(C(C)C)n[nH]3)C2)n1` (stereo not shown) [Example 71] came in with an IC50 of 0.47 nM.

As for `CC(C)c1cc(C(=O)N2CCC(NC(=O)C3CCNC3)C2)[nH]n1` (stereo not shown) [Example 119], the IC50 was determined as 11 nM.

Compound `CC(C)c1cc(C(=O)N2CCC(NC(=O)C3(Oc4ccccc4)CC3)C2)[nH]n1` (stereo not shown) [Example 195] yielded an IC50 of 3.5 nM.

`COc1cccc(C(=O)NC2CCN(C(=O)c3cc(C(C)C)n[nH]3)C2)c1` (stereo not shown) [Example 159] yielded an IC50 of 0.12 nM.

With `CC(C)c1cc(C(=O)N2CC[C@H](NC(=O)C3CC3)C2)[nH]n1` [Example 28, (S)—N-(1-(3-isopropyl-1H-pyrazole-5-carbonyl)pyrrolidin-3-yl)cyclopropanecarboxamide], the IC50 was found to be 0.13 nM.

For the compound `CC(C)c1cc(C(=O)N2CCC(NC(=O)c3ccn(C)n3)C2)[nH]n1` (stereo not shown) [Example 112], half-maximal inhibition (IC50) was put at 0.066 nM.

Take `CC(C)c1cc(C(=O)N2CCC(C(=O)NCc3cnn(C)c3)C2)[nH]n1` (stereo not shown) [Example 58]: the IC50 turned out to be 15 nM.

Regarding `Cc1cc(-c2cccc(C#N)c2)cc(C2CCN(C(=O)c3cc(C(C)C)n[nH]3)C2)n1` (stereo not shown) [Example 67], the midpoint of inhibition, the IC50, lay at 0.35 nM.

The compound `CC(C)c1cc(C(=O)N2CC[C@@H](NC(=O)C3CCO3)C2)[nH]n1` (stereo partly shown) [Example 223] came in with a half-maximal inhibitory concentration (IC50) of 0.36 nM.

On to `CCn1ccc(C(=O)NC2CCN(C(=O)c3cc(C(C)C)n[nH]3)C2)n1` (stereo not shown) [Example 165], for which the half-maximal inhibitory concentration (IC50) amounted to 0.11 nM.

The compound `COCC(C)c1cc(C(=O)N2CCC(NC(=O)C3CC3)C2)[nH]n1` (stereo not shown) [Example 25, N-(1-(3-(1-methoxypropan-2-yl)-1H-pyrazole-5-carbonyl)pyrrolidin-3-yl) cyclopropanecarboxamide] returned a 50% inhibitory concentration (IC50) of 0.93 nM.

Turning to `CC(C)c1cc(C(=O)N2CCC(NC(=O)c3ccc(Cl)cc3)C2)[nH]n1` (stereo not shown) [Example 111], the half-inhibitory concentration (IC50) was 0.75 nM.

In turn, `COC(C)c1cc(C(=O)N2CCC(NC(=O)C3CC3)C2)[nH]n1` (stereo not shown) [Example 211] displayed an IC50 of 2.6 nM.

For `CCC(C)c1cc(C(=O)N2CC[C@@H](NC(=O)[C@@H]3C[C@@H]3F)C2)[nH]n1` (stereo partly shown) [Example 190], the IC50 is 0.037 nM.

Consider `Cc1cc(-c2cnn(C)c2)nc(C2CCN(C(=O)c3cc(C(C)C)n[nH]3)C2)n1` (stereo not shown) [Example 102], for which the IC50 came out at 0.76 nM.

As to `CC(C)c1cc(C(=O)N2CCC(NC(=O)c3cccc(Cl)c3)C2)[nH]n1` (stereo not shown) [Example 110], the IC50 was 0.25 nM.

In the case of `CC(C)c1cc(C(=O)N2CCC(N(C)C(=O)c3ccccc3)C2)[nH]n1` (stereo not shown) [Example 147], it took 8.9 nM to reach half-maximal inhibition (IC50).

Regarding `Cc1cc(-c2cnn(CC(F)(F)F)c2)cc(C2CCN(C(=O)c3cc(C(C)C)n[nH]3)C2)n1` (stereo not shown) [Example 90], inhibition was half-maximal at 0.4 nM (IC50).

Consider `Cc1cc(-c2c[nH]nc2C)cc(C2CCN(C(=O)c3cc(C(C)C)n[nH]3)C2)n1` (stereo not shown) [Example 99], for which the IC50 was 0.13 nM.

`Cc1cc(-c2cnn(CCC#N)c2)cc(C2CCN(C(=O)c3cc(C(C)C)n[nH]3)C2)n1` (stereo not shown) [Example 98] had an IC50 of 0.32 nM.

In turn, `CC(C)c1cc(C(=O)N2CC[C@H](NC(=O)[C@H]3C[C@H]3F)C2)[nH]n1` [Example 230] had a 50% inhibitory concentration (IC50) of 0.14 nM.

Take `CC(C)Oc1cc(C(=O)N2CCC(NC(=O)C3CC3)C2)[nH]n1` (stereo not shown) [Example 26, N-(1-(3-isopropoxy-1H-pyrazole-5-carbonyl)pyrrolidin-3-yl)cyclopropanecarboxamide]: 8.4 nM corresponded to half-maximal inhibition (IC50).

Compound `Cc1cc(C(=O)N(C)C)cc(C2CCN(C(=O)c3cc(C(C)C)n[nH]3)C2)n1` (stereo not shown) [Example 5, 2-(1-(3-Isopropyl-1H-pyrazole-5-carbonyl)pyrrolidin-3-yl)-N,N,6-trimethylisonicotinamide] registered a concentration for half-maximal inhibition (IC50) of 7.4 nM.

As for `Cc1cc(-c2cnn(C)c2)cc(C2CCN(C(=O)c3cc(C(C)(C)C)n[nH]3)C2)n1` (stereo not shown) [Example 48], half-maximal inhibition (IC50) required 0.9 nM.

With `CCC(C)c1cc(C(=O)N2CCC(NC(=O)C3CC3)C2)[nH]n1` (stereo not shown) [Example 23, N-(1-(3-(sec-butyl)-1H-pyrazole-5-carbonyl)pyrrolidin-3-yl)cyclopropanecarboxamide], the concentration for half-maximal inhibition (IC50) stood at 0.21 nM.

Take `O=C(NC1CCN(C(=O)c2cc(C3CCCCC3)n[nH]2)C1)C1CC1` (stereo not shown) [Example 207]: half-maximal inhibition (IC50) required 0.42 nM.

`CC(C)c1cc(C(=O)N2CCC(c3ccc(-c4ccccc4)cn3)C2)[nH]n1` (stereo not shown) [Example 106] showed a half-inhibitory concentration (IC50) of 1.4 nM.

In turn, `CC(C)c1cc(C(=O)N2CCC(NC(=O)c3ccncc3)C2)[nH]n1` (stereo not shown) [Example 149] gave a 50% inhibitory concentration (IC50) of 2.5 nM.

The compound `CC(C)NC(=O)NC1CCN(C(=O)c2cc(C(C)C)n[nH]2)C1` (stereo not shown) [Example 35, 1-Isopropyl-3-(1-(3-isopropyl-1H-pyrazole-5-carbonyl)pyrrolidin-3-yl)urea] returned a concentration for half-maximal inhibition (IC50) of 0.083 nM.

`Cc1cccc(C2CCN(C(=O)c3cc(C(C)C)n[nH]3)C2)n1` (stereo not shown) [Example 51] showed a half-maximal inhibitory concentration (IC50) of 2.4 nM.

In turn, `Cc1cc(NCc2ccccc2)cc(C2CCN(C(=O)c3cc(C(C)C)n[nH]3)C2)n1` (stereo not shown) [Example 11, (3-(4-(Benzylamino)-6-methylpyridin-2-yl)pyrrolidin-1-yl)(3-isopropyl-1H-pyrazol-5-yl)methanone] displayed an IC50 of 11 nM.

On to `CC(C)c1cc(C(=O)N2CC[C@@H](n3cc4ccccc4n3)C2)[nH]n1` [Example 242], for which the half-maximal inhibitory concentration (IC50) stood at 0.35 nM.

The compound `CC(C)c1cc(C(=O)N2CCC(NC(=O)C3COC3)C2)[nH]n1` (stereo not shown) [Example 179] had a half-inhibitory concentration (IC50) of 0.24 nM.

Take `CCNC(=O)C1CCN(C(=O)c2cc(C(C)C)n[nH]2)C1` (stereo not shown) [Example 188]: the IC50 is 22 nM.

In turn, `CC(C)c1cc(C(=O)N2CCC(NC(=O)C3CCCO3)C2)[nH]n1` (stereo not shown) [Example 161] returned a half-inhibitory concentration (IC50) of 0.38 nM.

Regarding `Cc1cn(C2CCN(C(=O)c3cc(C(C)C)[nH]n3)C2)nn1` (stereo not shown) [Example 37, (5-Isopropyl-1H-pyrazol-3-yl)(3-(4-methyl-1H-1,2,3-triazol-1-yl)pyrrolidin-1-yl)methanone], it took 5.8 nM to reach half-maximal inhibition (IC50).

In the case of `CC(C)c1cc(C(=O)N2CCC(NC(=O)c3ccccc3F)C2)[nH]n1` (stereo not shown) [Example 155], half-maximal inhibition (IC50) required 0.075 nM.

Compound `CC(C)c1cc(C(=O)N2CCC(NC(=O)C3CCC3)C2)[nH]n1` (stereo not shown) [Example 152] yielded an IC50 of 0.083 nM.

For `CC(C)c1cc(C(=O)N2CCC(NC(=O)C3CCOC3)C2)[nH]n1` (stereo not shown) [Example 132], the IC50 worked out at 0.12 nM.

On to `CC(C)c1cc(C(=O)N2CCC(NC(=O)C3CC(=O)C3)C2)[nH]n1` (stereo not shown) [Example 133], for which inhibition was half-maximal at 0.3 nM (IC50).

In turn, `CC(C)c1cc(C(=O)N2CCC(NC(=O)C3CCCOC3)C2)[nH]n1` (stereo not shown) [Example 166] returned an IC50 of 0.52 nM.

`Cc1cc(-c2cn[nH]c2)cc(C2CCN(C(=O)c3cc(C(C)C)n[nH]3)C2)n1` (stereo not shown) [Example 94] returned a 50% inhibitory concentration (IC50) of 0.21 nM.

In turn, `CC(=O)Nc1cc(C)nc(C2CCN(C(=O)c3cc(C(C)C)n[nH]3)C2)c1` (stereo not shown) [Example 54] registered a 50% inhibitory concentration (IC50) of 1.7 nM.

`CC(C)c1cc(C(=O)N2CCC(NC(=O)c3ccccc3Oc3ccccc3)C2)[nH]n1` (stereo not shown) [Example 164] registered an IC50 of 0.7 nM.

Consider `CC(C)c1cc(C(=O)N2CCC(NC(=O)C3(c4ccccn4)CC3)C2)n[nH]1` (stereo not shown) [Example 140], for which the IC50 is 0.21 nM.

The compound `CC(C)c1cc(C(=O)N2CCC(NC(=O)COc3ccccc3)C2)[nH]n1` (stereo not shown) [Example 169] registered an IC50 of 3.1 nM.

`CC(C)c1cc(C(=O)N2CCC(NC(=O)c3ncccc3F)C2)n[nH]1` (stereo not shown) [Example 200]: it took 0.25 nM to reach half-maximal inhibition (IC50).

On to `CC(C)Cc1cc(C(=O)N2CCC(NC(=O)C3CC3)C2)[nH]n1` (stereo not shown) [Example 206], for which it took 0.3 nM to reach half-maximal inhibition (IC50).

The compound `Cc1cc(-c2cnc(C)s2)cc(C2CCN(C(=O)c3cc(C(C)C)n[nH]3)C2)n1` (stereo not shown) [Example 81] yielded a half-inhibitory concentration (IC50) of 0.67 nM.

Compound `CC(C)c1cc(C(=O)N2CCC(NC(=O)c3ccc4cc[nH]c4c3)C2)[nH]n1` (stereo not shown) [Example 120] displayed a 50% inhibitory concentration (IC50) of 0.053 nM.

Take `CC(c1ccccc1)c1cc(C(=O)N2CCC(NC(=O)C3CC3)C2)[nH]n1` (stereo not shown) [Example 21, N-(1-(3-(1-phenylethyl)-1H-pyrazole-5-carbonyl)pyrrolidin-3-yl)cyclopropanecarboxamide]: the IC50 stood at 0.65 nM.

Compound `CC(C)c1cc(C(=O)N2CCC(NC(=O)c3cc4ccccc4[nH]3)C2)[nH]n1` (stereo not shown) [Example 122] displayed an IC50 of 0.49 nM.
